From the supplement of paper PMC10307832

Assays:
Assay in all cases: relative viability (nuclei count vs DMSO), 5 days (fraction); higher = more cells survive
[1] = compound: CN(c1ncccc1CNc1nc(Nc2ccc3c(c2)CC(=O)N3)ncc1C(F)(F)F)S(C)(=O)=O + C[C@@H](Oc1cc(-c2cnn(C3CCNCC3)c2)cnc1N)c1c(Cl)ccc(F)c1Cl [Crizotinib] (partner 1 µM)
In short: (§1)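 For relative viability, nuclei counts in treated wells were divided by those in vehicle wells. Lung cancer cell lines had been pin-tool dosed in 1536-well plates the day after seeding and cultured for 5 days, then fixed and stained in one step (final 0.05% Triton X-100, 1% formaldehyde, 1 ug/ml Hoechst) and imaged at 4×. Doses were one drug alone or a fixed anchor-drug dose plus five library-drug doses (not always all listed) in √10 steps, and values are duplicate-plate medians.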

[2] = compound: CN(c1ncccc1CNc1nc(Nc2ccc3c(c2)CC(=O)N3)ncc1C(F)(F)F)S(C)(=O)=O + Cc1cc(Nc2cc(N3CCN(C)CC3)nc(Sc3ccc(NC(=O)C4CC4)cc3)n2)n[nH]1 [Tozasertib] (partner 0.1 µM)
In short: as §1

[3] = compound: CN(c1ncccc1CNc1nc(Nc2ccc3c(c2)CC(=O)N3)ncc1C(F)(F)F)S(C)(=O)=O + CC1(C)CCC(c2ccc(Cl)cc2)=C(CN2CCN(c3ccc(C(=O)NS(=O)(=O)c4ccc(N[C@H](CCN5CCOCC5)CSc5ccccc5)c(S(=O)(=O)C(F)(F)F)c4)cc3)CC2)C1 [Navitoclax] (partner 0.5 µM)
In short: as §1

[4] = compound: CN(c1ncccc1CNc1nc(Nc2ccc3c(c2)CC(=O)N3)ncc1C(F)(F)F)S(C)(=O)=O + O=C(CCCCCCC(=O)Nc1ccccc1)NO [Vorinostat] (partner 1 µM)
In short: as §1

Row | Cell Line | relative viability ([1]; first compound 0.01 µM) | relative viability ([1]; first compound 0.03162 µM) | relative viability ([1]; first compound 0.1 µM) | relative viability ([1]; first compound 0.3162 µM) | relative viability ([1]; first compound 1 µM) | relative viability ([2]; first compound 0.01 µM) | relative viability ([2]; first compound 0.03162 µM) | relative viability ([2]; first compound 0.1 µM) | relative viability ([2]; first compound 0.3162 µM) | relative viability ([2]; first compound 1 µM) | relative viability ([3]; first compound 0.01 µM) | relative viability ([3]; first compound 0.03162 µM) | relative viability ([3]; first compound 0.1 µM) | relative viability ([3]; first compound 0.3162 µM) | relative viability ([3]; first compound 1 µM) | relative viability ([4]; first compound 0.01 µM) | relative viability ([4]; first compound 0.03162 µM) | relative viability ([4]; first compound 0.1 µM) | relative viability ([4]; first compound 0.3162 µM) | relative viability ([4]; first compound 1 µM)
1 | HARA | 0.938 | 0.938 | 1 | 1.02 | 0.698 | 0.11 | 0.117 | 0.116 | 0.0944 | 0.0785 | 1.18 | 1.19 | 1.14 | 0.91 | 0.968 | 0.569 | 0.573 | 0.55 | 0.516 | 0.432
2 | NCI-H2126 | 1.03 | 1.09 | 0.975 | 0.942 | 0.916 | 0.793 | 0.91 | 0.85 | 0.787 | 0.714 | 0.838 | 0.893 | 0.849 | 0.894 | 0.776 | 0.76 | 0.845 | 0.642 | 0.831 | 0.701
3 | LXF-289 | 0.851 | 0.875 | 0.824 | 0.788 | 0.773 | 0.176 | 0.178 | 0.242 | 0.18 | 0.17 | 0.988 | 1.04 | 0.962 | 0.929 | 0.911 | 0.887 | 0.787 | 0.782 | 0.697 | 0.792
4 | NCI-H460 | 1.1 | 1.15 | 0.994 | 0.891 | 0.712 | 0.499 | 0.464 | 0.491 | 0.137 | 0.396 | 1.18 | 1.46 | 1.13 | 1.19 | 1.11 | 0.696 | 0.757 | 0.615 | 0.76 | 0.736
5 | NCI-H2170 | 1.23 | 1.22 | 1.31 |  | 1.21 | 0.741 | 0.691 | 0.679 | 0.649 | 0.716 | 0.675 | 0.62 | 0.687 |  | 0.554 | 0.817 | 0.882 | 0.836 | 0.832 | 0.859
6 | NCI-H2009 | 1.01 | 1.06 | 1.06 | 1.02 | 1.04 | 0.631 | 0.696 | 0.744 | 0.693 | 0.625 | 1.12 | 1.16 | 1.13 | 1.1 | 1.07 | 0.724 | 0.838 | 0.693 | 0.75 | 0.685
